Data taken from ChEMBL document CHEMBL5321281, “Synthesis and Biological Evaluation of Heterocyclic Ring-Fused 20(S)-Protopanaxadiol Derivatives as Potent Antiosteoporosis Agents” (J Med Chem, 2023).
pIC50: −log10 of the molar value. Calls of active or inactive are those of the source. The rule behind the calls is not given here.

Tests used:
Mus musculus [1] = experiment: Protective effect in ovariectomy induced osteoporosis C57BL/6 mouse model assessed as inhibition of OVX-induced osteoblast activity by analysing osteoblast number in proximal femur at 3 mg/kg, ip and measured after 6 weeks by TRAP staining based microscopic analysis; type: functional, organism-based
Mus musculus [2] = experiment: Protective effect in ovariectomy induced osteoporosis C57BL/6 mouse model assessed as inhibition of OVX-induced osteoclast activity by analysing osteoclast area in proximal femur at 3 mg/kg, ip and measured after 6 weeks by H and E staining based microscopic analysis; type: functional, organism-based
MC3T3-E1 = experiment: Induction of osteoblastogenesis in beta-glycerophosphate and vitamin C stimulated mouse MC3T3-E1 cells assessed as increase in ALP activity at 0.1 uM incubated for 7 days by ALP staining based microscopic analysis; type: functional, cell-based; conditions: time 7.0 day
BMMC [3] = experiment: Anti-osteoclastogenic activity in C57/BL6 mouse BMMC cells assessed as inhibition of RANKL-induced osteoclast differentiation at 0.1 uM incubated for 5 to 7 days in presence of M-CSF by TRAP staining based microscopic analysis relative to control; type: functional; conditions: time 5-7 day
BMMC [4] = experiment: Anti-osteoclastogenic activity in C57/BL6 mouse BMMC cells assessed as inhibition of RANKL-induced osteoclast differentiation by observing number of TRAP-positive multinucleated cells at 1 uM and compound added at different times and measured after 7 days in presence of M-CSF by TRAP staining based microscopic analysis relative to control; type: functional, cell-based; conditions: time 7.0 day, TDE = time-dependent effect
Mus musculus [5] = experiment: Protective effect in ovariectomy induced osteoporosis C57BL/6 mouse model assessed as increase in trabecular bone number (Tb.N) in RIO of femur at 1 to 3 mg/kg, ip and measured after 6 weeks by micro-CT analysis; type: functional, organism-based; conditions: dose 1-3 mg/kg
[6] = Microsomal stability in mouse liver microsomes assessed as parent compound remaining at 1 uM and measured after 60 mins by LC-MS/ MS analysis; type: ADME, Microsome; conditions: read-out: Stability
BMMC [7] = experiment: Anti-osteoclastogenic activity in C57/BL6 mouse BMMC cells assessed as reduction in RANKL-induced CTSK mRNA expression level at 0.1 uM incubated for 1 to 5 days in presence of M-CSF by qRT-PCR analysis; type: functional, cell-based; conditions: time 1-5 day, TDE = time-dependent effect
[8] = AUC (0 to infinity) in ICR mouse at 10 mg/kg, po and measured upto 24 hrs by LC-MS/MS analysis; type: ADME, organism-based; parameters: dose 10 mg/kg, time < 24 hrs, route po; conditions: in vivo
BMMC [9] = experiment: Anti-osteoclastogenic activity in C57/BL6 mouse BMMC cells assessed as inhibition of RANKL-stimulated osteoclastogenesis at 1 uM and compound added at day 3 to 5 (mid stage) and measured after 5 days in presence of M-CSF by TRAP staining based microscopic analysis relative to control; type: functional; conditions: 120 h, time 5 day
BMMC [10] = experiment: Anti-osteoclastogenic activity in C57/BL6 mouse BMMC cells assessed as inhibition of RANKL-induced osteoclast differentiation incubated for 5 to 7 days in presence of M-CSF by TRAP staining based microscopic analysis relative to control; type: functional, cell-based
Mus musculus [11] = experiment: Protective effect in ovariectomy induced osteoporosis C57BL/6 mouse model assessed as increase in bone volume/tissue volume (BV/TV) in RIO of femur at 3 mg/kg, ip and measured after 6 weeks by micro-CT analysis; type: functional
BMMC [12] = experiment: Anti-osteoclastogenic activity in C57/BL6 mouse BMMC cells assessed as reduction in RANKL-induced MMP-9 mRNA expression level at 0.1 uM incubated for 1 to 5 days in presence of M-CSF by qRT-PCR analysis; type: functional, cell-based; conditions: time 1-5 day, TDE = time-dependent effect
[13] = Microsomal stability in mouse liver microsomes assessed as half life at 1 uM and measured upto 60 mins by LC-MS/ MS analysis; type: ADME, Microsome
[14] = Toxicity in ovariectomy induced osteoporosis C57BL/6 mouse model assessed as body weight change at 1 to 3 mg/kg, ip and measured for 6 weeks; type: organism-based; conditions: in vivo, 1008 h, dose 1-3 mg/kg
BMMC [15] = experiment: Anti-osteoclastogenic activity in C57/BL6 mouse BMMC cells assessed as inhibition of RANKL-stimulated osteoclastogenesis at 1 uM and compound added at day 5 to 7 (late stage) and measured after 3 days in presence of M-CSF by TRAP staining based microscopic analysis relative to control; type: functional; conditions: 72 h, time 3 day
BMMC [16] = experiment: Anti-osteoclastogenic activity in C57/BL6 mouse BMMC cells assessed as inhibition of RANKL-stimulated osteoclastogenesis at 1 uM and compound added at day 1 to 3 (early stage) and measured after 7 days in presence of M-CSF by TRAP staining based microscopic analysis relative to control; type: functional; conditions: 168 h, time 7 day
[17] = Tmax in ICR mouse at 1 mg/kg, iv and measured upto 24 hrs by LC-MS/MS analysis; type: ADME, organism-based; conditions: in vivo
BMMC [18] = experiment: Anti-osteoclastogenic activity in C57/BL6 mouse BMMC cells assessed as reduction in RANKL-induced TRAP protein expression level at 0.1 uM incubated for 1 to 3 days in presence of M-CSF by Western blot anlaysis; type: functional, cell-based; conditions: time 1-3 day
[19] = Oral bioavailability in ICR mouse at 10 mg/kg and measured upto 24 hrs by LC-MS/MS analysis; type: ADME, organism-based; conditions: in vivo
[20] = Clearance in ICR mouse at 1 mg/kg, iv and measured upto 24 hrs by LC-MS/MS analysis; type: ADME, organism-based; conditions: in vivo
BMMC [21] = experiment: Anti-osteoclastogenic activity in C57/BL6 mouse BMMC cells assessed as inhibition of RANKL-induced osteoclast differentiation at 0.01 to 5 uM incubated for 5 to 7 days in presence of M-CSF by TRAP staining based microscopic analysis relative to control; type: functional, cell-based; conditions: dose 0.01-5 µM, time 5-7 day
BMMC [22] = experiment: Anti-osteoclastogenic activity in C57/BL6 mouse BMMC cells assessed as reduction in RANKL-induced MMP-9 protein expression level at 0.1 uM incubated for 1 to 3 days in presence of M-CSF by Western blot anlaysis; type: functional, cell-based; conditions: time 1-3 day
[23] = Half life in ICR mouse at 1 mg/kg, iv and measured upto 24 hrs by LC-MS/MS analysis; type: ADME, organism-based; conditions: in vivo
[24] = Cmax in ICR mouse at 10 mg/kg, po and measured upto 24 hrs by LC-MS/MS analysis; type: ADME, organism-based; parameters: dose 10 mg/kg, time < 24 hrs, route po; conditions: in vivo
[25] = AUCt in ICR mouse at 10 mg/kg, po and measured upto 24 hrs by LC-MS/MS analysis; type: ADME, organism-based; parameters: dose 10 mg/kg, time < 24 hrs, route po; conditions: in vivo
Mus musculus [26] = experiment: Protective effect in ovariectomy induced osteoporosis C57BL/6 mouse model assessed as increase in bone volume/tissue volume (BV/TV) in RIO of femur at 1 mg/kg, ip and measured after 6 weeks by micro-CT analysis; type: functional
[27] = AUCt in ICR mouse at 1 mg/kg, iv and measured upto 24 hrs by LC-MS/MS analysis; type: ADME, organism-based; parameters: dose 1 mg/kg, time < 24 hrs, route iv; conditions: in vivo
BMMC [28] = experiment: Anti-osteoclastogenic activity in C57/BL6 mouse BMMC cells assessed as inhibition of RANKL-induced osteoclast differentiation by measuring number of TRAP-positive multinucleated cells at 0.01 to 5 uM incubated for 5 to 7 days in presence of M-CSF by TRAP staining based microscopic analysis relative to control; type: functional, cell-based; conditions: dose 0.01-5 µM, time 5-7 day
[29] = Cmax in ICR mouse at 1 mg/kg, iv and measured upto 24 hrs by LC-MS/MS analysis; type: ADME, organism-based; parameters: dose 1 mg/kg, time < 24 hrs, route iv; conditions: in vivo

C=C(CCC=C(C)C)[C@H]1CC[C@]2(C)[C@@H]1[C@H](O)C[C@@H]1[C@@]3(C)Cc4cnc(C)nc4C(C)(C)[C@@H]3CC[C@]12C
inhibition (Mus musculus [1]): inactive | inhibition (Mus musculus [2]): Active | Activity (MC3T3-E1): Active | inhibition at 0.1 µM (BMMC [3]): 100% | inhibition (BMMC [4]): Tde | Activity (Mus musculus [5]): Active | remaining at 1 h, 1 µM [6]: 31% | Activity (BMMC [7]): Tde | AUC(0-inf) [8]: 1230 ng·h/mL | inhibition at 1 µM (BMMC [9]): 94.4% | pIC50 (BMMC [10]): 7.99 | Activity (Mus musculus [11]): 23.2% | Activity (BMMC [12]): Tde | half-life at 1 µM [13]: 37.1 min | Activity [14]: Non-Toxic | inhibition at 1 µM (BMMC [15]): 62.3% | inhibition at 1 µM (BMMC [16]): 98.8% | Tmax [17]: 4.8 min | Activity (BMMC [18]): Active | bioavailability [19]: 10.5% | clearance [20]: 14.2 mL/min/kg | inhibition (BMMC [21]): Dose-Dependent Effect | Activity (BMMC [22]): Active | half-life [23]: 20.2 min | Cmax [24]: 823 ng/mL | AUC(0-t) at 24 h [25]: 1210 ng·h/mL | Activity (Mus musculus [26]): 5.6% | AUC(0-t) at 24 h [27]: 1170 ng·h/mL | inhibition (BMMC [28]): Dose-Dependent Effect | Cmax [29]: 4180 ng/mL
